In ChEMBL document CHEMBL3091310, “Pseudo-cyclization through intramolecular hydrogen bond enables discovery of pyridine substituted pyrimidines as new Mer kinase inhibitors” (J Med Chem, 2013):

Legend:
[1] = target: T1, Tyrosine-protein kinase receptor UFO (Homo sapiens, UniProt P30530)
T1 sequence (P30530 whole entry): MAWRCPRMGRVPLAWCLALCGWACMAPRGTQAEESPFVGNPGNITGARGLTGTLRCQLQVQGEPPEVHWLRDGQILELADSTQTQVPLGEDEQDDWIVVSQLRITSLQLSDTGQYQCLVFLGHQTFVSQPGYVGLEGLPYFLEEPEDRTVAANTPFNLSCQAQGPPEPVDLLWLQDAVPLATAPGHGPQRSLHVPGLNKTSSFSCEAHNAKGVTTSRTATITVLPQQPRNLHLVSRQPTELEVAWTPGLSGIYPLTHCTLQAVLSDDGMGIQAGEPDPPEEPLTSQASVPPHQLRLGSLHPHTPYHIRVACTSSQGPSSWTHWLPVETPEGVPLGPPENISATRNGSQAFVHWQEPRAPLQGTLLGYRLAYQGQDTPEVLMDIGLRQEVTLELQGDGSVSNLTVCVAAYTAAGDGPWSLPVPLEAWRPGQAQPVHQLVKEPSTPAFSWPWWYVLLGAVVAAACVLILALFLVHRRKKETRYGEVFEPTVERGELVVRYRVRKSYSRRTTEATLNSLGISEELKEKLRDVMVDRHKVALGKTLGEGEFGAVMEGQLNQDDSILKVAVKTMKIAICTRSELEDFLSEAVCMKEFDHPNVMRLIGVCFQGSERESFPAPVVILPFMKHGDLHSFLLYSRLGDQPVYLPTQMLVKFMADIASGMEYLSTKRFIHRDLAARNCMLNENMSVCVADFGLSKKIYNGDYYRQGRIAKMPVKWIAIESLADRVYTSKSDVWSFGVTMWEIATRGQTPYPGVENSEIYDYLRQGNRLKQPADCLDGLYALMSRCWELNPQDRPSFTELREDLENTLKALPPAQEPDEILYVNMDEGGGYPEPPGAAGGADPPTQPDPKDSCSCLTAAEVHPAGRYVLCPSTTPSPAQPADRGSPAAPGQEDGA

[2] = target: T2, Tyrosine-protein kinase receptor TYRO3 (Homo sapiens, UniProt Q06418)
T2 sequence (Q06418 whole entry): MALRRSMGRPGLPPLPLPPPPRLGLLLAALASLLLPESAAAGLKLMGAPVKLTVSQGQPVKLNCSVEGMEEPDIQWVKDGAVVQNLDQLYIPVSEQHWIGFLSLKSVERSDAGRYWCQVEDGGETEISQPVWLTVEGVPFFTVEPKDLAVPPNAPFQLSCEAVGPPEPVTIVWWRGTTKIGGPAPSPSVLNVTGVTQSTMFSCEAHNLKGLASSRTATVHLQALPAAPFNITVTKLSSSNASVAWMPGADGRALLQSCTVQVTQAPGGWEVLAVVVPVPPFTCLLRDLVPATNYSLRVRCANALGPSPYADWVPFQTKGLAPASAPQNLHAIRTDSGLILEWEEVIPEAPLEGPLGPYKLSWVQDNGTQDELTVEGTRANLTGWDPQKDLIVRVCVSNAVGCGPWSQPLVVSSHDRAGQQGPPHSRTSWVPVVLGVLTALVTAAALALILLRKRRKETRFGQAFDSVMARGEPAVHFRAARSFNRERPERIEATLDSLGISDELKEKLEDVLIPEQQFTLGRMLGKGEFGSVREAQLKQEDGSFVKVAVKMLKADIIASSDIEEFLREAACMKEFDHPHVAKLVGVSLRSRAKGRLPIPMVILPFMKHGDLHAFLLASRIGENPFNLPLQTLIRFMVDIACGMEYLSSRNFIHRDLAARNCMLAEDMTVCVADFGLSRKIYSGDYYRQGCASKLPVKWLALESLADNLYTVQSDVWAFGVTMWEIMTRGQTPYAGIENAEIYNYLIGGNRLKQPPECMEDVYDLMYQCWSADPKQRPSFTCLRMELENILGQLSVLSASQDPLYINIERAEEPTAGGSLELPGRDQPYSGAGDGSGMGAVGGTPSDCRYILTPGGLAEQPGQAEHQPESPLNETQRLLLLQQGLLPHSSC

[3] = organism: Mus musculus; details: in vivo, po, 3 mg/kg
[4] = in vivo; details: mouse, po, 3 mg/kg
[5] = in vivo; details: mouse, po, 3 mg/kg; remark: listed apart in the source
[6] = in vivo; details: mouse, iv, 3 mg/kg
[7] = in vivo; details: mouse, iv, 3 mg/kg; remark: listed apart in the source
[8] = in vivo; details: mouse, iv, 3 mg/kg; remark: listed apart in the source
[9] = in vivo; details: mouse, iv, 3 mg/kg; remark: listed apart in the source
[10] = in vivo; details: mouse, iv, 3 mg/kg; remark: listed apart in the source
[11] = in vivo; details: mouse, po, 3 mg/kg; remark: listed apart in the source

In the case of `O[C@H]1CC[C@H](Nc2nc(NCc3ccccc3)ncc2-c2ccccn2)CC1`, the IC50 [1] is reported as > 30 µM.
In the case of `CCCCNc1ncc(-c2ccc(F)cc2)c(N[C@H]2CC[C@H](O)CC2)n1`, the IC50 [2] is reported as > 30 µM.
In the case of `CCCCNc1ncc(-c2ccc(S(=O)(=O)N3CCOCC3)cn2)c(N[C@H]2CC[C@H](O)CC2)n1`, the F [3] is reported as 1.3%, the Cmax [4] is reported as 13.9 ng/mL and the AUC(0-t) [5] is reported as 4.68 ng·h/mL. It also gave an AUC(0-t) [6] of 355 ng·h/mL, a half-life [7] of 54.6 min and a Cmax [8] of 1980 ng/mL. For the same compound, the Vd [9] was 2.9 L/kg, the clearance [10] was 134 mL/min/kg and the Tmax [11] was 15 min.
`CCCCNc1ncc(-c2ccc(CNC3CC3)cn2)c(N[C@H]2CC[C@H](O)CC2)n1` showed an F [3] of 27%, a Cmax [4] of 33 ng/mL and an AUC(0-t) [5] of 103 ng·h/mL. It also gave an AUC(0-t) [6] of 376 ng·h/mL, a half-life [7] of 283 min and a Cmax [8] of 277 ng/mL. The Vd [9] was 39 L/kg, the clearance [10] was 130 mL/min/kg and the Tmax [11] was 30 min.
In the case of `CSc1ncc(-c2ccccn2)c(N[C@H]2CC[C@H](O)CC2)n1`, the IC50 [2] is reported as > 30 µM and the IC50 [1] is reported as > 30 µM.
Compound `CCCCNc1ncc(-c2ccc(CN3CCOCC3)cn2)c(N[C@H]2CC[C@H](O)CC2)n1` has an F [3] of 23%, a Cmax [4] of 162 ng/mL and an AUC(0-t) [5] of 180 ng·h/mL. The AUC(0-t) [6] was 794 ng·h/mL, the half-life [7] was 95.4 min and the Cmax [8] was 1980 ng/mL. The Vd [9] was 3.9 L/kg, the clearance [10] was 62.2 mL/min/kg and the Tmax [11] was 15 min.
For `CCCCNc1ncc(-c2ccc(CN3CCC(F)(F)CC3)cn2)c(N[C@H]2CC[C@H](O)CC2)n1`, the F [3] was 55%, the Cmax [4] was 71 ng/mL and the AUC(0-t) [5] was 210 ng·h/mL. The AUC(0-t) [6] was 381 ng·h/mL, the half-life [7] was 178 min and the Cmax [8] was 737 ng/mL. It also gave a Vd [9] of 13.7 L/kg, a clearance [10] of 123 mL/min/kg and a Tmax [11] of 15 min.
With `CCCCNc1nccc(N[C@H]2CC[C@H](O)CC2)n1` the IC50 [2] was > 30 µM and the IC50 [1] was > 30 µM.
